# Laboratory results taken from patent publication US9321849B2, “Uranium-chelating peptides and uses thereof” (priority 2003, dated 2016).
# Where two headings read alike, the source gives them in different places.
# Tests used:
# [1] = system: MLCKp peptide (calmodulin-binding domain of myosin light chain kinase); test: Tryptophan fluorescence of the MLCKp ligand peptide in the presence of calmodulin; set-up: species or system rabbit; details: 5 μM MLCKp
# Description: The fluorescence spectra are recorded on a Cary Eclipse spectrometer (Varian, France) equipped with a thermostated cuvette holder. The excitation wavelength used is 280 nm with slot widths of 10 nm for excitation and of 2.5 nm for emission. The spectra are recorded between 300 nm and 450 nm in a cuvette with a 1 cm optical path.
# In the presence of calcium, calmodulin can bind and activate a large diversity of targets. Among these, the MLCKp peptide, which has 17 residues and is derived from the calmodulin-binding domain of a rabbit muscle myosin light chain kinase (CALBIOCHEM), has the following sequence:
# In a first series, a fluorescence spectrum for the tryptophan of the ligand, dissolved at a concentration of 5 μM in a 10 mM MES buffer, at pH 6.5, was recorded as described in example 1.
# Excitation of the solution at 280 nm makes it possible to detect an emission at 350 nm, characteristic of a tryptophan exposed to the aqueous solvent.
# This is compatible with a structure similar to that obtained in the case of calcium. […] The emission detected is then that of the metal (λ>450 nm) and no longer that of the tryptophan.
# [2] = Competition between calcium and uranyl for calmodulin, Dynafit simulation; type: binding; details: 8 μM calmodulin, 0.4 μM uranyl, calcium up to 8 mM
# Description: (§1) The coordination of uranium (in uranyl form, 2.0 μM) by the native protein in 1 mM phosphate medium was also studied. The complexation of uranium with the protein is reflected by a drop in uranyl fluorescence intensity. The titration spectra are represented in FIG. 13. In another experiment, a 0.4 μM solution of uranyl nitrate in a 1.0 mM phosphate buffer (pH 7.0) was titrated with a solution of calmodulin up to a protein concentration of 8 μM. After the addition of 8 μM of calmodulin, calcium ions were added up to the concentration of 8 mM (FIG. 14). The values for the titration of uranyl by calmodulin were interpreted by simulating the experimental data with a system of equations corresponding to one, two, three or four independent sites for uranium (FIG. 16). The Dynafit software (Kuzmic, P. 1996, Anal. Biochem. 237, 260-273) was used for these simulations. […] The values for competition with the calcium ions were also interpreted with a system of suitable equations and the simulation of the experimental points with this system is given in FIG. 17. […] It is also considered, as a hypothesis, that each of these two sites is independent of the other. […]
# [3] = TRLS titration of uranyl nitrate with calmodulin, Dynafit simulation; type: binding; details: 0.4 μM uranyl nitrate, 1.0 mM phosphate buffer pH 7.0, two-site simulation
# Description: as §1
substance,measurement,setting,value
calmodulin,increase in intensity of ligand tryptophan fluorescence,"[1]; 10 mM MES pH 6.5, one equivalent of calmodulin, absence of metals",25%
same,increase in intensity of ligand tryptophan fluorescence,"[1]; one equivalent of calmodulin, 10 equivalents of calcium",20%
same,ligand tryptophan fluorescence in the presence of uranyl,"[1]; one equivalent of calmodulin, uranyl",complete extinction of the fluorescence
same,displacement of uranium by calcium,[2],just one of the two sites complexed with uranium is displaced by calcium
same,Kd,"[3]; read-out: dissociation constant, uranyl, first of two high-affinity sites",3.3 ± 0.4 µM
same,Kd,"[3]; read-out: dissociation constant, uranyl, second of two high-affinity sites",0.72 ± 0.2 µM
